Key:
human JAK2 = human JAK2 (Homo sapiens (Human), UniProt O60674); settings: read-out: JAK2 IC50
human FAK = human FAK (Homo sapiens (Human), UniProt Q05397); settings: read-out: FAK IC50
human FAK, sequence (Q05397 whole entry): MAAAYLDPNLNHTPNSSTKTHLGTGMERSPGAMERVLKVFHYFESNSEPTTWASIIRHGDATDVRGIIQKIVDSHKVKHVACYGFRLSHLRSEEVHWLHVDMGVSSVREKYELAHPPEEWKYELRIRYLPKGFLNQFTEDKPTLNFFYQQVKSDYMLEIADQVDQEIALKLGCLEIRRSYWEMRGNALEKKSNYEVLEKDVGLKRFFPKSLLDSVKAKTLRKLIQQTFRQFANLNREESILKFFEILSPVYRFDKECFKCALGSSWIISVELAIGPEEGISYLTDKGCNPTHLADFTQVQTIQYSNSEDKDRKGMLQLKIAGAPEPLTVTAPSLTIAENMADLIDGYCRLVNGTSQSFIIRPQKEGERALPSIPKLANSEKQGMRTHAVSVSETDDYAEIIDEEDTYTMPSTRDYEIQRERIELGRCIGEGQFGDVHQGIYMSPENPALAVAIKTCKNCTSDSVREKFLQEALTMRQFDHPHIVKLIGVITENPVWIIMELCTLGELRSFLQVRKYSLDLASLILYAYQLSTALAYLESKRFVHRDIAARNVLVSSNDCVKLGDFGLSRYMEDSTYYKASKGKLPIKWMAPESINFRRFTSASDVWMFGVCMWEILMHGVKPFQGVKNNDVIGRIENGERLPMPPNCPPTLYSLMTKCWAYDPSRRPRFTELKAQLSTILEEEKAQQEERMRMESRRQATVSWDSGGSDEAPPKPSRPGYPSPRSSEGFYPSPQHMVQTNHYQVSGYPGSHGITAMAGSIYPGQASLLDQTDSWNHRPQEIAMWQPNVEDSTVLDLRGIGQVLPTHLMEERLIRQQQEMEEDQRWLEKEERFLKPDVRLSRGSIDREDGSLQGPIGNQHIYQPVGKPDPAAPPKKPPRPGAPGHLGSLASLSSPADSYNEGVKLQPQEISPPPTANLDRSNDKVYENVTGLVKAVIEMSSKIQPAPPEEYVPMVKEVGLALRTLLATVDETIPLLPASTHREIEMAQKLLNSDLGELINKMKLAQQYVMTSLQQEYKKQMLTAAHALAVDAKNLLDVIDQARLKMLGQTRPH

human JAK2, sequence (O60674 815-1132): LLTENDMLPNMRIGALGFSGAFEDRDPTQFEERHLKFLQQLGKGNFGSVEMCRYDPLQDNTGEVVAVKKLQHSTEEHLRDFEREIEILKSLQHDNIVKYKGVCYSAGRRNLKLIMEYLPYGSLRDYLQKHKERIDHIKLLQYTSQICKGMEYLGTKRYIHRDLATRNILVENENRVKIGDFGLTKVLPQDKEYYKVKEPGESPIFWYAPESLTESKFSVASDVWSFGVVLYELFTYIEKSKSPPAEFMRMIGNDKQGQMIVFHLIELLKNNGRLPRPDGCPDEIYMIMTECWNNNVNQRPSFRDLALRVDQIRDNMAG

Compound	IC50 (human JAK2)	IC50 (human FAK)
CS(=O)(=O)c1ccc(-c2cccc3nc(Nc4cccc(CN5CCS(=O)(=O)CC5)c4)nn23)cc1 [Example 121, N-{3-[(1,1-dioxidothiomorpholin-4-yl)methyl]phenyl}-5-[4-(methylsulfonyl)phenyl][1,2,4]triazolo[1,5-a]pyridin-2-amine]	0.55 nM	999 nM
CN1CCN(c2ccc(Nc3nc4c(NCc5cccnc5N(C)S(C)(=O)=O)cccn4n3)cc2)CC1 [Example 122, N-Methyl-N-[3-({2-[4-(4-methyl-piperazin-1-yl)-phenylamino]-[1,2,4]triazolo[1,5-a]pyridin-8-ylamino}-methyl)-pyridin-2-yl]-methanesulfonamide]	20.7 nM	30 nM
CN1CCC(c2ccc(Nc3nc4c(NCc5cccnc5N(C)S(C)(=O)=O)cccn4n3)cc2)CC1 [Example 123, N-Methyl-N-[3-({2-[4-(1-methyl-piperidin-4-yl)-phenylamino]-[1,2,4]triazolo[1,5-a]pyridin-8-ylamino}-methyl)-pyridin-2-yl]-methanesulfonamide]	40.3 nM	77.3 nM
CN(c1ncccc1CNc1cccn2nc(Nc3ccc(OCCN4CCCC4)cc3)nc12)S(C)(=O)=O [Example 124, N-Methyl-N-[3-({2-[4-(2-pyrrolidin-1-yl-ethoxy)-phenylamino]-[1,2,4]triazolo[1,5-a]pyridin-8-ylamino}-methyl)-pyridin-2-yl]-methanesulfonamide]	41.2 nM	59.7 nM
CN1CCC(c2ccc(Nc3nc4c(Nc5ccccc5S(C)(=O)=O)cccn4n3)cc2)CC1 [Example 125, N(8)-(2-Methanesulfonyl-phenyl)-N(2)-[4-(1-methyl-piperidin-4-yl)-phenyl]-[1,2,4]triazolo[1,5-a]pyridine-2,8-diamine]	6.6 nM	2050 nM
CS(=O)(=O)c1ccccc1Nc1cccn2nc(Nc3ccc(OCCN4CCCC4)cc3)nc12 [Example 126, N(8)-(2-Methanesulfonyl-phenyl)-N(2)-[4-(2-pyrrolidin-1-yl-ethoxy)-phenyl]-[1,2,4]triazolo[1,5-a]pyridine-2,8-diamine]	14.3 nM	1300 nM
CN(c1cccc(-c2cccn3nc(Nc4ccc(OCCN5CCCC5)cc4)nc23)c1)S(C)(=O)=O [Example 128, N-Methyl-N-(3-{2-[4-(2-pyrrolidin-1-yl-ethoxy)-phenylamino]-[1,2,4]triazolo[1,5-a]pyridin-8-yl}-phenyl)-methanesulfonamide]	34 nM	2310 nM
CN1CCC(c2cccc(Nc3nc4c(-c5cccc(N(C)S(C)(=O)=O)c5)cccn4n3)c2)CC1 [Example 129, N-Methyl-N-(3-{2-[3-(1-methyl-piperidin-4-yl)-phenylamino]-[1,2,4]triazolo[1,5-a]pyridin-8-yl}-phenyl)-methanesulfonamide]	8.88 nM	759 nM
CN1CCC(c2cccc(Nc3nc4c(-c5ccccc5N(C)S(C)(=O)=O)cccn4n3)c2)CC1 [Example 130, N-Methyl-N-(2-{2-[3-(1-methyl-piperidin-4-yl)-phenylamino]-[1,2,4]triazolo[1,5-a]pyridin-8-yl}-phenyl)-methanesulfonamide]	1200 nM	3000 nM
CN1CCN(c2ccc(Nc3nc4c(Nc5cccnc5N(C)S(C)(=O)=O)cccn4n3)cc2)CC1 [Example 131, N-Methyl-N-(3-{2-[4-(4-methyl-piperazin-1-yl)-phenylamino]-[1,2,4]triazolo[1,5-a]pyridin-8-ylamino}-pyridin-2-yl)-methanesulfonamide]	11.4 nM	1370 nM
CN(c1ncccc1Nc1cccn2nc(Nc3ccc(OCCN4CCCC4)cc3)nc12)S(C)(=O)=O [Example 132, N-Methyl-N-(3-{2-[4-(2-pyrrolidin-1-yl-ethoxy)-phenylamino]-[1,2,4]triazolo[1,5-a]pyridin-8-ylamino}-pyridin-2-yl)-methanesulfonamide]	33.1 nM	3000 nM
CN1CCC(c2ccc(Nc3nc4c(Nc5cccnc5N(C)S(C)(=O)=O)cccn4n3)cc2)CC1 [Example 133, N-Methyl-N-(3-{2-[4-(1-methyl-piperidin-4-yl)-phenylamino]-[1,2,4]triazolo[1,5-a]pyridin-8-ylamino}-pyridin-2-yl)-methanesulfonamide]	17.4 nM	2070 nM
CN(c1ncccc1CNc1cccn2nc(Nc3ccc(S(C)(=O)=O)cc3)nc12)S(C)(=O)=O [Example 134, N-(3-{[2-(4-Methanesulfonyl-phenylamino)-[1,2,4]triazolo[1,5-a]pyridin-8-ylamino]-methyl}-pyridin-2-yl)-N-methyl-methanesulfonamide]	17.3 nM	752 nM
CN(c1ncccc1CNc1cccn2nc(Nc3cccc(S(C)(=O)=O)c3)nc12)S(C)(=O)=O [Example 135, N-(3-{[2-(3-Methanesulfonyl-phenylamino)-[1,2,4]triazolo[1,5-a]pyridin-8-ylamino]-methyl}-pyridin-2-yl)-N-methyl-methanesulfonamide]	77.8 nM	215 nM
CN1CCN(c2cccc(Nc3nc4c(NCc5cccnc5N(C)S(C)(=O)=O)cccn4n3)c2)CC1 [Example 136, N-Methyl-N-[3-({2-[3-(4-methyl-piperazin-1-yl)-phenylamino]-[1,2,4]triazolo[1,5-a]pyridin-8-ylamino}-methyl)-pyridin-2-yl]-methanesulfonamide]	77.2 nM	71.1 nM
COc1cc(N2CCN(C)CC2)ccc1Nc1nc2c(NCc3cccnc3N(C)S(C)(=O)=O)cccn2n1 [Example 137, N-[3-({2-[2-Methoxy-4-(4-methyl-piperazin-1-yl)-phenylamino]-[1,2,4]triazolo[1,5-a]pyridin-8-ylamino}-methyl)-pyridin-2-yl]-N-methyl-methanesulfonamide]	3000 nM	39.7 nM
CN1CCN(c2ccc(Nc3nc4c(NCc5ccccc5S(C)(=O)=O)cccn4n3)cc2)CC1 [Example 138, N(8)-(2-Methanesulfonyl-benzyl)-N(2)-[4-(4-methyl-piperazin-1-yl)-phenyl]-[1,2,4]triazolo[1,5-a]pyridine-2,8-diamine]	13.2 nM	199 nM
CN1CCN(c2cccc(Nc3nc4c(NCc5ccccc5S(C)(=O)=O)cccn4n3)c2)CC1 [Example 139, N(8)-(2-Methanesulfonyl-benzyl)-N(2)-[3-(4-methyl-piperazin-1-yl)-phenyl]-[1,2,4]triazolo[1,5-a]pyridine-2,8-diamine]	26.3 nM	200 nM
CN1CCC(c2ccc(Nc3nc4c(NCc5ccccc5S(C)(=O)=O)cccn4n3)cc2)CC1 [Example 140, N(8)-(2-Methanesulfonyl-benzyl)-N(2)-[4-(1-methyl-piperidin-4-yl)-phenyl]-[1,2,4]triazolo[1,5-a]pyridine-2,8-diamine]	22.6 nM	124 nM
CS(=O)(=O)c1ccccc1CNc1cccn2nc(Nc3ccc(OCCN4CCCC4)cc3)nc12 [Example 141, N(8)-(2-Methanesulfonyl-benzyl)-N(2)-[4-(2-pyrrolidin-1-yl-ethoxy)-phenyl]-[1,2,4]triazolo[1,5-a]pyridine-2,8-diamine]	15.1 nM	98.8 nM
